This is an account of results in ChEMBL document CHEMBL1156032, “Potent small molecule mouse CD22-inhibitors: exploring the interaction of the residue at C-2 of sialic acid scaffold” (Bioorg Med Chem Lett, 2009).

The IC50 is the concentration that gives 50% inhibition. High values mean lower potency, low ones higher potency.

One assay has as its target T1, B-cell receptor CD22 (Mus musculus, UniProt P35329).
T1 sequence (P35329 whole entry): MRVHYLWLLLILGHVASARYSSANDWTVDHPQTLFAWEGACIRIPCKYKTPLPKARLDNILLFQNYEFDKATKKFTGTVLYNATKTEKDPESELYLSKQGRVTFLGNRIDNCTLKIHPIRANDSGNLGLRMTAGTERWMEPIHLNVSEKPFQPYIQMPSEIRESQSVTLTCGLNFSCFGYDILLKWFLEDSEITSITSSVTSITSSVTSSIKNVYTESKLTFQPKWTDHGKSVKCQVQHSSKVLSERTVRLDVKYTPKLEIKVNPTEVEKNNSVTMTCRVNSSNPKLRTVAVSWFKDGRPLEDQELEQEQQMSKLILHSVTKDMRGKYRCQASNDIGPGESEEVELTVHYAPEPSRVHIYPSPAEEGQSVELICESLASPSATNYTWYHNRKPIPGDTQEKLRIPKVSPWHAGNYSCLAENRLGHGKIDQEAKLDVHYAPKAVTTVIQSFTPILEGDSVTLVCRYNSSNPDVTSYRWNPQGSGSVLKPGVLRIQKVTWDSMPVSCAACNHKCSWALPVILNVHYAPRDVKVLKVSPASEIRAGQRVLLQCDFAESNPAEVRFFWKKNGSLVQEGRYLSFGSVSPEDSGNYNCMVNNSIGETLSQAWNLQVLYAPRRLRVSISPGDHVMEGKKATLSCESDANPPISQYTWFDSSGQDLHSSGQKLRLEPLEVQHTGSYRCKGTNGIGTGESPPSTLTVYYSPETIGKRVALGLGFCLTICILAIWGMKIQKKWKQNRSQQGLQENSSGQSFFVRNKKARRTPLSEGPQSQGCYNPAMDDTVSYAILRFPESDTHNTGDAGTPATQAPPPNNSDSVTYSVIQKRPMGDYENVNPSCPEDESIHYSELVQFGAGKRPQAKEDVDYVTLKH
Description: Binding affinity to mouse CD22 after 1 hr by competition ELISA. In general terms: ELISA stands for enzyme-linked immunosorbent assay.

For assay [1], the target named is T2, B-cell receptor CD22 (Mus musculus) (UniProt P35329).
T2 sequence (whole entry): T1 sequence (P35329 whole entry)
Description: Ratio of 9-([…]-4-biphenyl)acetamido-9-deoxy- Neu5Gca2-6GalOMP IC50 to compound IC50 for mouse CD22 after 1 hr by competition ELISA.

Bounds are passed on as bounds.

Molecule `O=C(Cc1ccc(-c2ccc(O)cc2)cc1)NC[C@@H](O)[C@@H](O)[C@@H]1O[C@@](OCc2ccc(-c3ccccc3)cc2)(C(=O)O)C[C@H](O)[C@@H]1NC(=O)CO` came in with an IC50 at B-cell receptor CD22 of 0.19 µM. In addition, the Ratio IC50 in assay [1] is 20.2.

`CC(=O)N[C@@H]1[C@H]([C@H](O)[C@H](O)CO)O[C@@](OC[C@H]2O[C@@H](OCC[Si](C)(C)C)[C@H](O)[C@@H](O)[C@H]2O)(C(=O)O)C[C@@H]1O` displayed an IC50 at B-cell receptor CD22 greater than 1000 µM.

As for `COc1ccc(O[C@@H]2O[C@H](CO[C@]3(C(=O)O)C[C@H](O)[C@H](NC(=O)CO)[C@H]([C@H](O)[C@H](O)CNC(=O)Cc4ccc(-c5ccc(O)cc5)cc4)O3)[C@H](O)[C@H](O)[C@H]2O)cc1`, the Ratio IC50 in assay [1] worked out at 1.

Regarding `C[Si](C)(C)CCO[C@@H]1O[C@H](CO[C@]2(C(=O)O)C[C@H](O)[C@H](NC(=O)CO)[C@H]([C@H](O)[C@H](O)CO)O2)[C@H](O)[C@H](O)[C@H]1O`, the IC50 on B-cell receptor CD22 worked out at 545 µM.

On B-cell receptor CD22, `COc1ccc(O[C@@H]2O[C@H](CO[C@]3(C(=O)O)C[C@H](O)[C@H](NC(=O)CO)[C@H]([C@H](O)[C@H](O)CN)O3)[C@H](O)[C@H](O)[C@H]2O)cc1` registered an IC50 of 82.9 µM.

On to `COc1ccc(O[C@@H]2O[C@H](CO[C@]3(C(=O)O)C[C@H](O)[C@H](NC(=O)CO)[C@H]([C@H](O)[C@H](O)CO)O3)[C@H](O)[C@H](O)[C@H]2O)cc1`, for which the IC50 on B-cell receptor CD22 came to 305 µM. This IC50 lies about 3.7-fold higher than the previous one.

With `O=C(Cc1ccc(-c2ccc(O)cc2)cc1)NC[C@@H](O)[C@@H](O)[C@@H]1O[C@@](OCc2ccccc2)(C(=O)O)C[C@H](O)[C@@H]1NC(=O)CO`, at B-cell receptor CD22, the IC50 came out at 0.1 µM. Besides, the Ratio IC50 in assay [1] was 38.4.
